Experiments:
Format in all cases: biochemical
[1] = molecular target: Klebsiella pneumoniae ATCC 25955 B12-dependent glycerol dehydratase (GDH), wild type, SEQ ID NO: 1 (α, β, γ subunits SEQ ID NO: 2, 3, 4) (Klebsiella pneumoniae, UniProt O08505+Q59476); test: Time course of GDH reaction with glycerol, with and without 1,3-propanediol (permeabilized cells, FIG. 1); parameters: permeabilized cells (A1) or purified (A2-A4)
Description: FIG. 1 illustrates the typical time course associated with GDH inactivation. These enzyme activity assays were conducted using the GDH encoded by dhaB1, dhaB2, and dhaB3 (SEQ ID NO:1 and SEQ ID NO: 2, 3, and 4, respectively) of K. pneumoniae (WO 01/012833A2).
Cells were permeabilized as follows: aliquots of culture (0.3 mL) were dispensed into the square wells of a polypropylene deep-well plate (Beckman-Coulter, Fullerton, Calif.) and 10 μL of toluene containing 2.5% (v/v) Triton X-100 detergent was added to each well. Plates were then shaken for 10 min at top speed on an IKA MTS4 shaker (IKA-Werke Gmbh., Staufen, Germany). Working under red light to protect the coenzyme B12, reactions were started by adding 5 volumes of substrate solution to 1 volume of permeabilized cell suspension. The substrate solution contained 12 mM glycerol and 24 μM coenzyme B12 in 0.1 M K-Hepes, pH 8. At timed intervals, 12.5 μl aliquots of the reaction were added to the wells of a 96-well plate which contained 12.5 μl of 3 mg/mL MBTH in 0.4 M glycine-HCl, pH 2.7. At least 20 min after sampling, 125 μL of 5.5 mM FeCl3 in 10 mM HCl was added to each of the MBTH-containing samples. After a further 20 min or longer, the blue color associated with GDH activity was quantitated as absorbance at 670 nm using a Spectramax 160 plate reader (Molecular Devices, Sunnyvale, Calif.). A similar experiment was conducted in which the substrate solution was supplemented with 50 mM 1,3-propanediol.
The rate of product formation decreases rapidly with time as inactivation occurs. A theoretical curve was drawn through the points by fitting three parameters to the following equation y=T0+amp(1−exp(−kinact obsd*time)). […] The fitting parameters are related to the kinetic properties of the reaction as follows: the amplitude is equal to the initial rate of the reaction (v) divided by the observed enzyme inactivation rate (kinact obsd). The initial rate is [GDH][gly]kcat/(Km+[gly]). […]

[2] = molecular target: Klebsiella pneumoniae GDH variant Xba3009 (α-Thr77Ala, α-Cys193Ser, stop of α to Glu (α-β fusion), β-Lys56Arg, β-Ala88 silent, β-Asp111Glu, γ-His67Tyr, γ-Thr114 (Klebsiella pneumoniae, UniProt O08505+Q59476, C193S/D111E, form not given/K56R/T77A)); conditions: Xba3009 (Type 4)
[3] = molecular target: Klebsiella pneumoniae GDH variant Xba3007 (γ-Thr53Ala), SEQ ID NO: 40 (amino acid 41, 42, 43) (Klebsiella pneumoniae, UniProt O08505+Q59476); conditions: Xba3007 (Type 1)
[4] = molecular target: Klebsiella pneumoniae GDH variant Sma3002 (α-Tyr271Cys, α-Tyr502His, stop of α to Gln (α-β fusion), β-Gln2Arg, β-Phe11 silent), SEQ ID NO: 140 (amino acid 141, (Klebsiella pneumoniae, UniProt O08505+Q59476, form not given/Y271C/Y502H)); conditions: Sma3002 (Type 2)

## OCCCO [1,3-propanediol]
[1]
  Ki: ~15 mM
[1]; 50 mM 1,3-propanediol, 10 mM glycerol, vs without 1,3-propanediol
  inactivation, times faster with 1,3-propanediol: ~3 times
[1]; pH 8, read-out: reduction of initial rate of the reaction
  inhibition at 50000 µM: ~20%

## OCC(O)CO [glycerol]
[2]
  kcat: 65,373 min^−1
[3]
  kcat: 16,220 min^−1
[4]
  Km: 2940 µM
  kcat: 9,830 min^−1

— patent US8569469B2, “B12-dependent dehydratases with improved reaction kinetics” (priority 2002, dated 2013)
